Test results taken from patent publication US20110223642A1, “METHOD FOR INHIBITING BACTERIA GROWTH DURING ETHANOL FERMENTATION” (priority 2010, published 2011).

Tested on: gram positive bacteria
Assay: Inhibition of gram positive bacteria growth in corn mash media
Type: cell-based
Settings: typical corn mash media
Method: If added just to a propagator the isopellets should be diluted down to 2 to 20 ppm in a fermenter. The hop acids employed are not limited to isomerized hop acids but can also be stabilized unisomerized hop pellets. The stabilized hop pellet, can be isomerized into isoalpha acids once placed into 70° C. or hotter hot water for thirty or more minutes. Once this isomerization is completed the mixture can be added to the yeast propagator or fermenter. The unexpected results include reduced levels of isoalpha acid required to inhibit gram positive bacteria growth, better antibacterial protection toward the end of fermentation, and increased yeast alcohol tolerance. Typically about 15 ppm of isoalpha acid is required to inhibit most gram positive bacteria growth in a typical corn mash media; however, we discovered that isomerized hop pellets made in accordance with the present invention can inhibit bacteria growth at an isoalpha acid dosage of about 12 ppm. While not wishing to be bound by theory, it is believed iso-pellets made in accordance with the present invention also contain beta acids, which are very effective at inhibiting gram positive bacteria growth. Unfortunately beta acids ordinarily are not soluble in corn mash or cereal fermentations, and thus their antibacterial effect is worthless. […]

Substance: isoalpha acid
- isoalpha acid dosage required to inhibit gram positive bacteria growth: about 15 ppm
